According to patent US6214801A, “Imidazo[1,2-a]pyridine C-nucleosides as antiviral agents” (The Regents of the University of Michigan, priority 1999, dated 2001):

What was measured:
HCMV [1] = conditions: background; cited from earlier work
[2] = Growth cytotoxicity in KB cells (crystal violet staining); assay type: cell-based; conditions: human, two population doubling times, read-out: 50% Inhibitory Concentration IC50, Cytotoxicity, Growth (KB cells)
Procedure: (§1) KB cells (available from the American Type Culture Collection (ATCC) 12301 Parklawn Drive, […], Md. 20852 (ATCC CCL 17)), an established human cell line derived from an epidermal oral carcinoma, were grown in minimal essential medium (MEM) (Sigma) with Hanks salts (MEM(H)) supplemented with 5% fetal calf serum. Human foreskin fibroblasts (HFF cells) (provided by the University of Michigan Hospital) and African green monkey kidney cells (BSC-1) (ATTC CCL 26) cells were grown in MEM with Earl salts (MEM(E)) supplemented with 10% fetal bovine serum. Cells were passaged according to conventional procedures and as described in Shipman, C., Jr. et al. (1976) Antimicrob. Agents Chemother. Vol. 9:120 and incorporated herein by reference. Briefly, cells were passaged at 1:2 to 1:10 dilutions according to conventional procedures by using 0.05% trypsin plus 0.02% EDTA in a HEPES buffered salt solution. HFF cells were passaged onlv at 1:2 dilutions.
(§2) Two different methods were used to evaluate cytotoxicity of the compounds. First, cytotoxicity produced in stationary HFF cells was determined by microscopical examination of cells not affected by the virus used in the plaque assay. Second the effect of compounds on KB cells during two population doubling times was determined by crystal violet staining and spectrophotometric quantitation of dye eluted from stained cells. This method has been utilized for the analysis of ganciclovir and zidovudine (See Prichard, M. N. et al. Antiviral Res. (1991) Vol. 35:1060-1065).

HSV-1 = HSV-1 ELISA assay; assay type: cell-based, herpes simplex virus type 1, KOS strain; conditions: Human alphaherpesvirus 1; read-out: 50% Inhibitory Concentration IC50, Antiviral Activity, HSV-1 (ELISA assay)
Procedure: as §1
(§3) A plaque purified isolate, Po, of the Towne strain of HCMV was used in all experiments and was a gift of Dr. Mark Stinski, University of Iowa. The KOS strain of HSV-1 was used and was provided by Dr. Sandra K. Weller, University of Connecticut. Stock preparations of HCMV and HSV-1 were prepared and titered as known to those of skill and the art and described in Turk, S. R. et al. (1987) Antimicrob. Agents Chemother. Vol. 31:544-550 and Shipman, C., Jr., et al. (1990) J. Virol. Methods Vol. 28:101-106, each incorporated herein by reference.
Briefly, high titer HSV-1 stocks were prepared as follows. Nearly confluent monolayer cultures of KB cells were grown in 32 oz. glass bottles containing MEM(E) buffered with 25 mM HEPES and supplemented with 5% fetal bovine serum and 0.127 giliter L-arginine (VGM, virus growth medium). The cultures were infected at a low input multiplicity to reduce the formation of defective virus. After cell cytopathology reached "three to four plus", the cells were harvested by vigorous shaking, and concentrated by centrifugation (800×g for 5 min.). The resulting virus pools were stored at -760C until retrieved for use in experiments.
HSV-1 was titered using monolayer cultures of BSC-1 cells. Cells were planted at 3×10^5 cells/well using 6-well cluster dishes. MEM(E) supplemented with 10% fetal bovine serum was employed as medium. After 22-24 h, cells were 90% confluent and were inoculated in triplicate using at least three ten-fold dilutions with 0.2 ml of the virus suspension to be assayed and incubated in a humidified 4% CO2 -[…] atmosphere for one hour to permit viral adsorption. Following virus adsorption, the cell sheet was overlayed with 5 ml of MEM(E) with 5% serum plus 0.5% methocel (4000 CPS) and incubated an additional two to three days. Cells were fixed and stained with 0.1% crystal violet in 20% methanol and macroscopic plaques enumerated.
(§4) HCMV plaque reduction experiments were performed with monolayer cultures of HFF cells by a procedure similar to that referenced above for titration of the viruses and described in Devivar, R. V. et al. (1994) J. Med. Chem. Vol. 37:2942-2949. Activity of compounds against HSV-1 was evaluated using an ELISA assay.
ELISA techniques according to standard procedures were also used to determine activity against HSV-1. Drug effects were calculated as a percentage of the reduction in virus titers in the presence of each drug concentration compared to the titer obtained in the absence of drug. Ganciclovir was used as a positive control in all experiments.

in vitro = assay type: cell-based, human; conditions: human, hff cells
Procedure: as §1, §2

HCMV [3] = assay: HCMV plaque (focus) reduction assay in HFF cells; assay type: cell-based; conditions: for IC50: Human betaherpesvirus 5, HFF cells, 7 to 10 days, read-out: 50% Inhibitory Concentration IC50, Antiviral Activity, HCMV (plaque assay in HFF cells)
Procedure: as §1, §3
Stock HCMV was prepared by infecting HFF cells at a multiplicity of infection (m.o.i.) of less that 0.01 plaque-forming units (p.f.u.) per cell. Cell growth medium was changed every four days until cytopathology was evident in all cells (approximately 21 days). Supernatant fluids were retained as the virus stock. Four days later, the remaining cells were disrupted by three cycles of freeze-thawing and the cell plus medium held as an additional source of virus. Storage was in liquid nitrogen.
HCMV was titered in 24-well cluster dishes which were plated to contain 5×10^4 HFF cells/well, grown as described above. When the cells were 70 to 80% confluent, 0.2 ml of the virus suspension was added per well and adsorbed as described above. At least three ten-fold dilutions of each preparation were used. Following virus adsorption, the cell sheets were overlayed with 0.5% methocel (4000 CPS) in maintenance medium [MEM(E) with 1.1 g/liter NaHCO3, 100 units/ml penicillin G, 100 μg/ml streptomycin, and 5% fetal bovine serum]. The cultures were incubated in a humidified atmosphere of 4% CO2 -96% air. Viral plaques were visible 5 to 7 days after infection using at least 10-fold magnification. Cells were fixed and stained by a 10-minute exposure to a 0.1% solution of crystal violet in 20% methanol 7 to 12 days after infection. Microscopic foci were enumerated at 20-fold magnification using a Nikon Profile Projector.
as §4
The effect of compounds of the replication of HCMV was measured using a plaque (focus) reduction assay. For the former, HFF cells in 24-well culture dishes were infected with approximately 50 p.f.u. of HCMV per well using the procedures detailed above. Compounds dissolved in growth medium were added in four to six selected concentrations to duplicate wells following virus adsorption. Following incubation at 37 °C for 7 to 10 days, cell sheets were fixed, stained and microscopic plaques were enumerated as described above. Drug effects were calculated as a percentage of reduction in number of plaques in the presence of each drug concentration compared to the number observed in the absence of drug. […]

HFF cells = assay: in vitro; assay type: cell-based, human
Procedure: as §1, §2

SMILES	antiviral activity of known compounds (in words) (HCMV [1])	CC50 [2] [µM]	IC50 (HSV-1) [µM]	CC50 (in vitro) [µM]	IC50 (HCMV [3]) [µM]	cytotoxicity (in words) (HFF cells)	antiviral activity (in words) (HCMV [3]; Table 5)
OC[C@H]1O[C@@H](n2c(Br)nc3cc(Cl)c(Cl)cc32)[C@H](O)[C@@H]1O [BDCRB, 2-bromo-5,6-dichloro-1-(2'-β-D-ribofuranosyl)-benzimidazole]	useful against HCMV infections						
Clc1ccc2nc(Cl)cn2c1 [Compound 12, 2,6-Dichloro-imidazo[1,2-a]pyridine]		> 100	> 100	> 100	> 100		
Clc1ccn2cc(Cl)nc2c1 [Compound 15, 2,7-Dichloro-imidazo[1,2-a] pyridine]		> 100	> 100	> 100	> 100		
Clc1cn2cc(Cl)c(Cl)cc2n1 [Compound 16, 2,6,7-Trichloro-imidazo[1,2-a]pyridine]		> 100	> 100	> 100	> 100		
Clc1cn2cc(Cl)c(Cl)c(Cl)c2n1 [Compound 18, 2,6,7,8-Tetrachloro-imidazo[1,2-a]pyridine]		> 100	> 100	> 100	> 100		
OC[C@H]1O[C@@H](c2c(Cl)ccc3nc(Cl)cn23)[C@H](O)[C@@H]1O [Compound 36, 2,6-Dichloro-5-(β-D-ribofuranosyl)imidazo[1,2-a]pyridine]		> 100	> 100	> 100	> 100		
OC[C@H]1O[C@H](c2c(Cl)ccc3nc(Cl)cn23)[C@H](O)[C@@H]1O [Compound 38, 2,6-Dichloro-5-(α-D-ribofuranosyl)imidazo[1,2-a]pyridine]		> 100	> 100	> 100	> 100		
OC[C@H]1O[C@@H](c2c(Cl)c(Cl)cc3nc(Cl)cn23)[C@H](O)[C@@H]1O [Compound 42, 2,6,7-Trichloro-5-(β-D-ribofuranosyl)imidazo[1,2-a]pyridine]		> 100	> 100	> 100	> 100		
OC[C@H]1O[C@H](c2c(Cl)c(Cl)cc3nc(Cl)cn23)[C@H](O)[C@@H]1O [Compound 43, 2,6,7-Trichloro-5-(α-D-ribofuranosyl)imidazo[1,2-a]pyridine]		> 100	> 100	> 100	> 100		
OC[C@H]1O[C@@H](c2cccc3nccn23)[C@H](O)[C@@H]1O [Compound 45, 5-(β-D-Ribofuranosyl)imidazo[1,2-a]pyridine]		> 100	> 100	> 100	> 100		
O[C@@H]1[C@@H](c2c(Cl)nc3cc(Cl)c(Cl)cn23)OC[C@@H]1O [Compound +28, 2,6,7-Trichloro-3-(β-L-erythrofuranosyl)imidazo[1,2-a]pyridine]		> 100	> 100	> 100	> 100		
O[C@@H]1[C@H](O)CO[C@H]1c1c(Cl)nc2cc(Cl)c(Cl)cn12 [Compound -28, 2,6,7-Trichloro-3-(β-D-erythrofuranosyl)imidazo[1,2-a]pyridine]		> 100	> 100	> 100	> 100		
O[C@H]1[C@@H](O)CO[C@H]1c1c(Cl)nc2cc(Cl)c(Cl)cn12 [Compound -29, 2,6,7-dichloro-3-(α-L-erythrofuranosyl)imidazo[1,2-α]pyridine]		> 100	> 100	> 100	17		
O[C@H]1[C@@H](O)CO[C@H]1c1c(Cl)nc2cc(Cl)c(Cl)cn12 [Compound -29]						very low cytotoxicity	excellent antiviral activity
Nc1nc(O)c2ncn(COC(CO)CO)c2n1 [DHPG, ganciclovir, reference compound]				> 100	7.4		
